# Square brackets hold non-standard residues; d marks the D form. Ends that are not written are not given here. Lys(Me3) = C[N+](C)(C)CCCC[C@H](N)C(=O)O; Lys(Me2) = CN(C)CCCC[C@H](N)C(=O)O
# Columns and labels:
# KDM3A = assay: LC-MS demethylation activity assay, KDM3A; format: biochemical, human; details: 2 μM KDM, 10 μM H1/H3 peptide, 10 μM FAS, 100 μM LAA, 20 μM 2OG, 50 mM HEPES pH 7.5, 2 h, room temperature; for KDM3A demethylation activity, D: D (di-) initial methylation state
# Experimental: (§1) The substrate specificity of JmjC KDMs for H1 was examined using liquid chromatography coupled to mass spectrometry (LC-MS) assays. The H1 peptides (10 μM) were incubated with the recombinant KDM (2 μM) in HEPES buffer at pH 7.5 at room temperature for 2 h, in the presence of ferrous(II) ammonium sulfate (FAS, 10 μM), sodium ascorbate (LAA, 100 μM) and 2OG (20 μM), and then quenched with formic acid. N^ε-Methylated H3K9 and H3K36 peptides were used as positive controls (Fig. 3–5 and Fig. S2–S6).[26]
# (§2) The catalytic domains of the JmjC KDMs used were recombinantly produced as reported in either Escherichia coli (KDM4AM1-L359,[38] KDM4DM1-L359,[39] KDM4EM1-R336,[30] KDM6BD1141–E1590[40] and KDM3CL2157-L2500) or Sf9 cells (KDM3AT515–S1317, KDM3B882–1761, and KDM5DM1-D775) as N-terminally His6-tagged proteins. […] To produce proteins, DNA sequences encoding for KDM3A, KDM3B and KDM5D were inserted into the pFB-LIC vector, containing a TEV-protease cleavable N-terminal 6x-histidine tag via ligation independent cloning (LIC). The resultant plasmids were transformed into baculovirus and Sf9 cells ([…]) which were infected with the virus stock. The cells were grown at 27 °C and 90 rpm for 70 h. Cells were then harvested and suspended in 100 mL of lysis buffer (50 mM HEPES-NaOH, pH 7.4, 500 mM NaCl, 20 mM imidazole, 0.5 mM Tris (2-carboxyethyl)phosphine (TCEP), 5% (v/v) glycerol). […] The supernatant was loaded onto a Ni-NTA gravity column, washed with 10 column volume of lysis buffer and eluted using the elution buffer (50 mM HEPES-NaOH, pH 7.4, 500 mM NaCl, 300 mM imidazole, 0.5 mM TCEP, 5% (v/v) glycerol). The eluted protein was further purified using S200 gel filtration column chromatography (50 mM HEPES-NaOH, pH 7.4, 150 mM NaCl, 0.5 mM TCEP and 5% glycerol). Protein purity was analysed by SDS-PAGE and further confirmed by mass spectrometry. Selected fractions were pooled, concentrated and stored at −80 °C.
# (§3) All reagents were purchased from Sigma Aldrich and were of the highest grade available. Ferrous(II) ammonium sulfate (FAS) solutions were prepared freshly by dissolving FAS to 400 mM in 20 mM HCl with subsequent dilution to 1 mM using deionized water. Fresh 2OG (10 mM) and LAA (50 mM) solutions were prepared by dissolving the solids in deionised water. All enzyme reactions were performed in 384-well plates (Greiner Bio-One) with a final reaction volume of 50 μL. Substrate mixtures contained 50 mM HEPES pH 7.5, LAA (100 μM), FAS (10 μM), 2OG (20 μM) and an H1 isoform peptide (10 μM). Reactions were initiated by the addition of enzyme to a final concentration of 2.0 μM. After 2 h, the reactions were stopped by the addition of 5 μL of 10% (v/v) LC-MS grade formic acid (Fisher Scientific) to a final concentration of 1% (v/v). Product analyses were performed by liquid chromatography-mass spectrometry (LC-MS) using an Agilent 1290 infinity II LC system equipped with an Agilent 1290 multisampler and an Agilent 1290 high speed pump and connected to an Agilent 6550 accurate mass iFunnel quadrupole time of flight (Q-TOF) mass spectrometer. 1 μL of the reaction mixture was injected onto a 1.8 μm × 2.1 × 50 mm ZORBAX RRHD Eclipse Plus C18 column (Agilent). Solvent A consisted of HPLC grade water containing 0.1% (v/v) formic acid and solvent B consisted of MeCN containing 0.1% (v/v) formic acid. Peptides were separated using a stepwise gradient (0 min – 95% solvent A, 1.0 min – 80% solvent A, 3.0 min – 45% solvent A, 4.0 min – 45% solvent A, 5.0 min – 0% solvent A, 6.0 min – 0% solvent A, 7.0 min – 95% solvent A). This was followed by a 3 min post-run with 95% solvent A to re-equilibrate the column. All flow rates were 0.2 mL min^−1. A blank injection of HPLC grade water was carried out between each sample injection.
# KDM3B = assay: LC-MS demethylation activity assay, KDM3B; format: biochemical, human; details: 2 μM KDM, 10 μM H1/H3 peptide, 10 μM FAS, 100 μM LAA, 20 μM 2OG, 50 mM HEPES pH 7.5, 2 h, room temperature; for KDM3B demethylation activity, D: D (di-) initial methylation state
# Experimental: as §1, §2, §3
# KDM3C = assay: LC-MS demethylation activity assay, KDM3C; format: biochemical, human; details: 2 μM KDM, 10 μM H1/H3 peptide, 10 μM FAS, 100 μM LAA, 20 μM 2OG, 50 mM HEPES pH 7.5, 2 h, room temperature; for KDM3C demethylation activity, D: D (di-) initial methylation state
# Experimental: as §1, §2, §3
# KDM4A = assay: LC-MS demethylation activity assay, KDM4A; format: biochemical, human; details: 10 μM FAS, 100 μM LAA, 20 μM 2OG, room temperature; for KDM4A demethylation activity, D: D (di-) initial methylation state
# Experimental: as §1, §2, §3
# KDM4D = target: T1, KDM4D (Homo sapiens, UniProt Q6B0I6); assay: LC-MS demethylation activity assay, KDM4D; format: biochemical; details: room temperature; for KDM4D demethylation activity, D: D (di-) initial methylation state
# T1 construct: KDM4AM1-L359,[38]; KDM4DM1-L359,[39]; KDM4EM1-R336,[30]; His6 (N); made in house; host or cells: Escherichia coli
# T1 sequence (Q6B0I6 1-359): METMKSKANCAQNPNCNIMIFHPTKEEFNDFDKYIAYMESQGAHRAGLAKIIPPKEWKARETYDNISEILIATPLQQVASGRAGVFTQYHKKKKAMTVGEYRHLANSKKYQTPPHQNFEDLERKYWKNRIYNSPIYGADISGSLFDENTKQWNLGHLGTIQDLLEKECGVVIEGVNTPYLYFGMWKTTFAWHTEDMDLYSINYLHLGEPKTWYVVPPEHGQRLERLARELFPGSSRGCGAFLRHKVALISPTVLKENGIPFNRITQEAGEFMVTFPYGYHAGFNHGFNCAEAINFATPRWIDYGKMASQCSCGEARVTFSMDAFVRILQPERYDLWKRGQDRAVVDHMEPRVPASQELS
# Experimental: as §1, §2, §3
# KDM4E = target: T2, KDM4E (Homo sapiens, UniProt B2RXH2); assay: LC-MS demethylation activity assay, KDM4E; format: biochemical; details: 10 μM FAS, 100 μM LAA, 20 μM 2OG, room temperature; for KDM4E demethylation activity, D: D (di-) initial methylation state
# T2 construct: KDM4DM1-L359,[39]; KDM4EM1-R336,[30]; His6 (N); made in house; host or cells: Escherichia coli
# T2 sequence (B2RXH2 1-336): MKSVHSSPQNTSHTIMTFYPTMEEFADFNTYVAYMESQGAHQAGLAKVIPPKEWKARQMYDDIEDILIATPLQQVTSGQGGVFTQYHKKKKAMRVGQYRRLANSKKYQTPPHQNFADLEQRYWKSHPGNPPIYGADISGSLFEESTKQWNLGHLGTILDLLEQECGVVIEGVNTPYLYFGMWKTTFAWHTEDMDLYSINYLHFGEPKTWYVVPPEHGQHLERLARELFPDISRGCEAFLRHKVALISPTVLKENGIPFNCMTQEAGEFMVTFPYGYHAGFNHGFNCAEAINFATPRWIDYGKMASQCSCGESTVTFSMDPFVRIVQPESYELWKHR
# Experimental: as §1, §2, §3
# KDM5D = assay: LC-MS demethylation activity assay, KDM5D; format: biochemical, human; details: 2 μM KDM, 10 μM H1/H3 peptide, 10 μM FAS, 100 μM LAA, 20 μM 2OG, 50 mM HEPES pH 7.5, 2 h, room temperature; for KDM5D demethylation activity, D: D (di-) initial methylation state
# Experimental: as §1, §2, §3
# KDM6B = assay: LC-MS demethylation activity assay, KDM6B; format: biochemical, human; details: 2 μM KDM, 10 μM H1/H3 peptide, 10 μM FAS, 100 μM LAA, 20 μM 2OG, 50 mM HEPES pH 7.5, 2 h, room temperature; for KDM6B demethylation activity, D: D (di-) initial methylation state
# Experimental: as §1, §2, §3
# [1] = 2 μM KDM, 10 μM H1/H3 peptide, 50 mM HEPES pH 7.5, 2 h
# [2] = 2 μM KDM, 10 μM H1/H3 peptide, 10 μM FAS, 100 μM LAA, 20 μM 2OG, 50 mM HEPES pH 7.5, 2 h
# [3] = M (mono-) initial methylation state
# [4] = 2 μM KDM, 10 μM H1/H3 peptide, 50 mM HEPES pH 7.5, 2 h, M (mono-) initial methylation state
# [5] = T (tri-) initial methylation state
# [6] = 2 μM KDM, 10 μM H1/H3 peptide, 50 mM HEPES pH 7.5, 2 h, T (tri-) initial methylation state
# [7] = 2 μM KDM4D, 10 μM peptide, standard conditions, 2 h
substance,measurement,setting,value
"KKKATK[Lys(Me2)]AAGAGAAK [Peptide H1.5K26me2, 15-mer linker histone H1.5 residues 20-34 peptide, di-methylated K26]","KDM3A demethylation activity, D",KDM3A,● [red]
same,"KDM3B demethylation activity, D",KDM3B,● [red]
same,"KDM3C demethylation activity, D",KDM3C,● [red]
same,"KDM4A demethylation activity, D",KDM4A; [1],● [red]
same,"KDM4D demethylation activity, D",KDM4D; [2],● [black] (black dots indicate low-level demethylation (<10% conversion))
same,substrate conversion (demethylation) by KDM4E,"KDM4E; 2 μM KDM4E, 10 μM peptide, HEPES pH 7.5, 2 h",> 40%
same,"KDM4E demethylation activity, D",KDM4E; [1],● [green] (green dots indicate good demethylation (>50% conversion))
same,"KDM5D demethylation activity, D",KDM5D,● [red]
same,"KDM6B demethylation activity, D",KDM6B,● [red]
"KKKATKmeKAAGAGAAK [Peptide H1.5K25me, 15-mer linker histone H1.5 residues 20-34 peptide, mono-methylated K25]","KDM3A demethylation activity, M",KDM3A; [3],● [red]
same,"KDM3B demethylation activity, M",KDM3B; [3],● [red]
same,"KDM3C demethylation activity, M",KDM3C; [3],● [red]
same,"KDM4A demethylation activity, M",KDM4A; [4],● [red]
same,"KDM4D demethylation activity, M","KDM4D; 2 μM KDM, 10 μM H1/H3 peptide, 10 μM FAS, 100 μM LAA, 20 μM 2OG, 50 mM HEPES pH 7.5, 2 h, M (mono-) initial methylation state",● [red]
same,"KDM4E demethylation activity, M",KDM4E; [4],● [red]
same,"KDM5D demethylation activity, M",KDM5D; [3],● [red]
same,"KDM6B demethylation activity, M",KDM6B; [3],● [red]
"KKKAT[Lys(Me2)]KAAGAGAAK [Peptide H1.5K25me2, 15-mer linker histone H1.5 residues 20-34 peptide, di-methylated K25]","KDM3A demethylation activity, D",KDM3A,● [red]
same,"KDM3B demethylation activity, D",KDM3B,● [red]
same,"KDM3C demethylation activity, D",KDM3C,● [red]
same,"KDM4A demethylation activity, D",KDM4A; [1],● [red]
same,"KDM4D demethylation activity, D",KDM4D; [2],● [red]
same,"KDM4E demethylation activity, D",KDM4E; [1],● [red]
same,"KDM5D demethylation activity, D",KDM5D,● [red]
same,"KDM6B demethylation activity, D",KDM6B,● [red]
"KKKAT[Lys(Me3)]KAAGAGAAK [Peptide H1.5K25me3, 15-mer linker histone H1.5 residues 20-34 peptide, tri-methylated K25]","KDM3A demethylation activity, T",KDM3A; [5],● [red]
same,"KDM3B demethylation activity, T",KDM3B; [5],● [red]
same,"KDM3C demethylation activity, T",KDM3C; [5],● [red]
same,substrate conversion (demethylation) by KDM4A,"KDM4A; 2 μM KDM4A, 10 μM peptide, HEPES pH 7.5, 2 h",< 10%
same,"KDM4A demethylation activity, T",KDM4A; [6],● [yellow] (yellow dots indicate moderate demethylation (<50% conversion))
same,"KDM4D demethylation activity, in words",KDM4D; [7],No activity was observed
same,di-methylated product formed by KDM4D,KDM4D; [7],< 5%
same,"KDM4D demethylation activity, T","KDM4D; 2 μM KDM, 10 μM H1/H3 peptide, 10 μM FAS, 100 μM LAA, 20 μM 2OG, 50 mM HEPES pH 7.5, 2 h, T (tri-) initial methylation state",● [red]
same,"KDM4E demethylation activity, T",KDM4E; [6],● [red]
same,"KDM5D demethylation activity, T",KDM5D; [5],● [red]
same,"KDM6B demethylation activity, T",KDM6B; [5],● [red]

# Source: publication PMC12363342, “Investigating the N-terminal linker histone H1 subtypes as substrates for JmjC lysine demethylases” (RSC Chemical Biology, 2025)
